Reference: the NIST ThermoML archive (doi:10.1007/s10765-017-2241-7)
± gives the expanded uncertainty stated by the source.

Settings: Liquid, Bellows volumetry

CC1CCCCC1 [methylcyclohexane]
mass density [kg/m3]
Settings | 410 K | 450 K | 500 K | 550 K | 600 K
10000 kPa | 680.503 ± 1.5 | 645.737 ± 1.4 | 595.224 ± 1.3 | 537.032 ± 1.2 | –
12000 kPa | – | – | – | – | 485.331 ± 1.2
20000 kPa | 695.044 ± 1.5 | 664.914 ± 1.5 | 623.145 ± 1.4 | 579.029 ± 1.3 | 532.582 ± 1.2
30000 kPa | 707.272 ± 1.6 | 680.595 ± 1.5 | 643.213 ± 1.4 | 605.816 ± 1.3 | 567.711 ± 1.3
40000 kPa | 717.821 ± 1.6 | 693.215 ± 1.5 | 659.481 ± 1.5 | 626.206 ± 1.4 | 592.364 ± 1.3
50000 kPa | 727.698 ± 1.6 | 704.34 ± 1.6 | 672.946 ± 1.5 | 642.447 ± 1.4 | 611.576 ± 1.4
60000 kPa | 736.124 ± 1.6 | 714.464 ± 1.6 | 684.828 ± 1.5 | 656.179 ± 1.4 | 627.511 ± 1.4
70000 kPa | 743.853 ± 1.6 | 723.281 ± 1.6 | 695.54 ± 1.5 | 668.08 ± 1.5 | 641.114 ± 1.4
80000 kPa | 750.846 ± 1.7 | 731.598 ± 1.6 | 704.872 ± 1.6 | 678.738 ± 1.5 | 653.239 ± 1.4
90000 kPa | 757.777 ± 1.7 | 739.304 ± 1.6 | 713.602 ± 1.6 | 688.637 ± 1.5 | 664.012 ± 1.5
100000 kPa | 764.111 ± 1.7 | 746.296 ± 1.6 | 721.454 ± 1.6 | 697.29 ± 1.5 | 673.632 ± 1.5
120000 kPa | 776.018 ± 1.7 | 759.037 ± 1.7 | 735.845 ± 1.6 | 713.086 ± 1.6 | 690.895 ± 1.5
140000 kPa | 786.383 ± 1.7 | 770.433 ± 1.7 | 748.645 ± 1.6 | 726.911 ± 1.6 | 705.698 ± 1.6
160000 kPa | 795.899 ± 1.8 | 780.708 ± 1.7 | 759.878 ± 1.7 | 739.33 ± 1.6 | 718.93 ± 1.6
180000 kPa | 804.482 ± 1.8 | 790.183 ± 1.7 | 770.353 ± 1.7 | 750.159 ± 1.7 | 730.911 ± 1.6
200000 kPa | 812.647 ± 1.8 | 798.897 ± 1.8 | 779.786 ± 1.7 | 760.464 ± 1.7 | 741.384 ± 1.6
